The values below come from patent publication US3953293A, “Process for the preparation of xylostasin” (Takeda Chemical Industries, Ltd., priority 1972, dated 1976).

Converted amounts (≈) assume the structure as drawn.

Series [1] in a line: Acute toxicity by intravenous injection into mice. As to conditions: mouse, in vivo, free base. As to the method:
The acute toxicity of xylostasin was examined by intravenous injection into mice. The LD50 value for the free base was approximately 1,000 mg/kg.

A further series relates to Shigella flexneri EW-10. In words: Minimal inhibitory concentration by the agar dilution method. The note with it: EW10, bouillon agar. It is filed as cell-based. The text has this: (§1) Minimal inhibitory concentrations by the
(§2) The media used for the test are bouillon agar for the common bacteria and glycerin bouillon agar for acid fast bacteria.

Series [2] concerns Mycobacterium smegmatis IFO 3083. The series is described as above. It is filed as cell-based. The note with it: Mycolicibacterium smegmatis, IFO3083, glycerin bouillon agar.
Source text: as §1, §2

In series [3] the test system is Staphylococcus aureus FDA 209P. Described as above. As to conditions: FDA209P, bouillon agar. It counts as cell-based.
Source text: as §1, §2

Series [4] concerns Proteus vulgaris IFO 3045. The description is as above. As to conditions: IFO3045, bouillon agar. It is filed as cell-based.
Source text: as §1, §2

The test system of series [5] is Mycobacterium avium (Neomycin-resistant). The description is as above. It is filed as cell-based. The note with it: read-out: Minimal inhibitory concentration.
Source text: as §1, §2

Another series relates to Sarcina lutea IFO 3232. Described as above. It counts as cell-based. As to conditions: Micrococcus luteus, IFO3232, bouillon agar.
Source text: as §1, §2

Series [6] relates to Mycobacterium avium IFO 3153. The description is as above. It counts as cell-based. As to conditions: IFO3153, glycerin bouillon agar.
Source text: as §1, §2

Series [7] concerns Pseudomonas aeruginosa IFO 3080. The series is described as above. As to conditions: IFO3080, bouillon agar. It is filed as cell-based.
Source text: as §1, §2

For another series, the system named is Bacillus brevis IFO 3331. The series is described as above. It counts as cell-based. The note with it: Brevibacillus brevis, IFO3331, bouillon agar.
Source text: as §1, §2

The subject of series [8] is Bacillus subtilis PCI 219. Described as above. The note with it: PCI219, bouillon agar. It counts as cell-based.
Source text: as §1, §2

For the next series, the system named is Bacillus cereus IFO 3466. The description is as above. It is filed as cell-based. The note with it: IFO3466, bouillon agar.
Source text: as §1, §2

Series [9] has as its system Escherichia coli IFO 3044. The series is described as above. It is filed as cell-based. As to conditions: IFO3044, bouillon agar.
Source text: as §1, §2

Series [10] deals with Mycobacterium phlei IFO 3158. Described as above. It is filed as cell-based. As to conditions: Mycolicibacterium phlei, IFO3158, glycerin bouillon agar.
Source text: as §1, §2

Series [11] deals with Mycobacterium avium (Streptomycin-resistant). Described as above. It is filed as cell-based. The note with it: read-out: Minimal inhibitory concentration.
Source text: as §1, §2

The next series deals with Escherichia coli 0-111. In words: Anti-infection test in mice. As to conditions: mice infected with Escherichia coli 0-111; single subcutaneous dose of 10 mg/kg immediately after infection. It counts as in vivo.

One may read the LD50 as the dose at which mortality reaches 50%. Lower therefore signals greater toxicity. Consider `NC[C@H]1O[C@H](O[C@H]2[C@H](O[C@@H]3O[C@H](CO)[C@H](O)[C@H]3O)[C@@H](O)[C@H](N)C[C@@H]2N)[C@H](N)[C@@H](O)[C@@H]1O` [xylostasin, O-β-D-xylofuranosyl-(1 → 5)-O-[α-2,6-diamino-2,6-dideoxy-D-glucopyranosyl-(1 → 4)]-2-deoxystreptamine], for which, in [1], the LD50 was around 1000 mg/kg. In addition, the MIC was 12.5 µg/mL (≈ 27.5 µM) against Shigella flexneri EW-10; 1.6 µg/mL (≈ 3.52 µM) in series [2]; 6.25 µg/mL (≈ 13.8 µM) in series [3]; 50 µg/mL (≈ 110 µM) in series [4]; above 50 µg/mL in series [5]; 25 µg/mL (≈ 55 µM) with Sarcina lutea IFO 3232. Besides, the MIC is 1.6 µg/mL (≈ 3.52 µM) in [6]; above 50 µg/mL in series [7]; 25 µg/mL (≈ 55 µM) in the series on Bacillus brevis IFO 3331; 3.12 µg/mL (≈ 6.88 µM) in [8]; 50 µg/mL (≈ 110 µM) against Bacillus cereus IFO 3466; 6.25 µg/mL (≈ 13.8 µM) in series [9]. The MIC worked out at 1.6 µg/mL (≈ 3.52 µM) in series [10] and 3.12 µg/mL (≈ 6.88 µM) in series [11]. For the same compound, the “death of the mice” value in the series on Escherichia coli 0-111 was “completely prevented”.
